# Measurements taken from patent publication US10561736B1, “Apoptosis inhibitor formulations for prevention of hearing loss” (Spiral Therapeutics, Inc., priority 2019, dated 2020).
# “Also recorded” adds a separate entry of the source. Where two headings read alike, the source gives them in different places.
# Experiments:
# HEI-OC1 cells [1] = assay: release of mitochondrial Cytc in HEI-OC1 cells with CisPt (flow cytometry); format: cell-based; conditions: cellular model of CisPt-induced apoptosis
# Method: Flow cytometry was also used to characterize the effect of LPT99 in the release of mitochondrial Cytc in HEI-OC1 cells in vitro with CisPt prevention.
# (§1) The effect of LPT99 on proliferation of non-apoptotic cells was studied. A549 cells were cultured in the presence of LPT99 for up to 6 days; the cell number was monitored by flow cytometry, and doubling time was calculated.
# HEI-OC1 cells [2] = assay: HEI-OC1 cell viability with CisPt; format: cell-based; conditions: cellular model of CisPt-induced apoptosis
# Method: (§2) To identify off-target activities of LPT99, its selectivity against a panel of receptors (44 G-protein-coupled receptors [GPCR] and 4 non-GPCR), 4 ion channels, and 3 transporters were analyzed. The cell line, HEI-OC1 (house ear institute organ of Corti 1), which expresses several characteristic markers of the organ of Corti sensory cells (Kalinec, et al., Audiol. Neurootol. 2003, 8(4), 177-89), was used to evaluate the efficacy of LPT99 in preventing apoptosis due to […]. Cells were pre-incubated with LPT99, followed by […] for 24 hours.
# as §1
# C1-GABA-gated channel = assay: off-target selectivity panel; format: binding
# Method: as §2
# (§3) For 14 of the tested targets-adenosine receptor 3 (A3); cholecystokinin: cholecystokinin receptor 1 (CCK1); melatonin receptor (MT1); neurokinin (NK2 and NK3); opioid (kOP and mOP); serotonin receptors (5HT-1A, 5HT-2A, 5HT-2B and 5HT-7); and vasopressin (ViA; Na+channel site 2 and C1-GABA-gated channel)—the LPT99 affinity was >50%. At 1 μM, the inhibition of 13 of these targets was <50%, indicating a very low affinity with LPT99.
# Na+channel site 2 = assay: off-target selectivity panel; format: binding
# Method: as §2, §3
# [3] = molecular target: adenosine receptor 3 (A3) (Homo sapiens, UniProt P0DMS8); assay: off-target selectivity panel; format: binding
# Method: as §2, §3
# [4] = molecular target: cholecystokinin receptor 1 (CCK1) (Homo sapiens, UniProt P32238); assay: off-target selectivity panel; format: binding
# Sequence of cholecystokinin receptor 1 (CCK1) (P32238 whole entry): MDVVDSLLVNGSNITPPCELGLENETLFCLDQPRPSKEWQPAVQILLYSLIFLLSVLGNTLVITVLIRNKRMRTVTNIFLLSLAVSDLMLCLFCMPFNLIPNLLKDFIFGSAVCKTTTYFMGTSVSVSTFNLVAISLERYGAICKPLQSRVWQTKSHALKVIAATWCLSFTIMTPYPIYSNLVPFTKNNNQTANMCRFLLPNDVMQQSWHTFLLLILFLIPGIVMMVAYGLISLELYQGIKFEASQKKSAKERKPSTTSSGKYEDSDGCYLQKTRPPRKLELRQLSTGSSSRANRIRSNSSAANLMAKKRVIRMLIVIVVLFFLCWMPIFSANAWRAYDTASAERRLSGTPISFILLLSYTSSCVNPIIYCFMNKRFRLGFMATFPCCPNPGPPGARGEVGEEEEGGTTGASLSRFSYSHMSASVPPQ
# Method: as §2, §3
# melatonin receptor (MT1) = melatonin receptor (MT1) (Homo sapiens, UniProt P48039); assay: off-target selectivity panel; format: binding
# Sequence of melatonin receptor (MT1) (P48039 whole entry): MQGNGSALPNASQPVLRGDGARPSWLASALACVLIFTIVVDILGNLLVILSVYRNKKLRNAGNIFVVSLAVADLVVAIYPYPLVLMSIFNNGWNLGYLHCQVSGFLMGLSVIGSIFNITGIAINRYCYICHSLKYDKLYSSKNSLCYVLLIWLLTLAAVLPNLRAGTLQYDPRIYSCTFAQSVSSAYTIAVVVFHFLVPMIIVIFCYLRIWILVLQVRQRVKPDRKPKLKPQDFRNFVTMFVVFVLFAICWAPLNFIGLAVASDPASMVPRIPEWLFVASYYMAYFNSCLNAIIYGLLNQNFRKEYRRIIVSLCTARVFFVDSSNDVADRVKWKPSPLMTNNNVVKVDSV
# Method: as §2, §3
# neurokinin (NK2) = neurokinin (NK2) (Homo sapiens, UniProt P21452); assay: off-target selectivity panel; format: binding
# Sequence of neurokinin (NK2) (P21452 whole entry): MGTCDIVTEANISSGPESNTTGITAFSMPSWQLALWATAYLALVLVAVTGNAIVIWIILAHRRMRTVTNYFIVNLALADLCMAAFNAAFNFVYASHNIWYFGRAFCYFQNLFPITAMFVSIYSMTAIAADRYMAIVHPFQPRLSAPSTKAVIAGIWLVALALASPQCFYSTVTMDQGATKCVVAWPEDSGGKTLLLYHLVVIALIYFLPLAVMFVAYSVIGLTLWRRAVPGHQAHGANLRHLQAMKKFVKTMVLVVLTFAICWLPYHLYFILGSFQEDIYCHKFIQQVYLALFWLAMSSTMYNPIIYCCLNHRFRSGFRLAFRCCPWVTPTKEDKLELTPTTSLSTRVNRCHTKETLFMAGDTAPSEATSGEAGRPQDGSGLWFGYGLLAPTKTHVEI
# Method: as §2, §3
# neurokinin (NK3) = neurokinin (NK3) (Homo sapiens, UniProt P29371); assay: off-target selectivity panel; format: binding
# Sequence of neurokinin (NK3) (P29371 whole entry): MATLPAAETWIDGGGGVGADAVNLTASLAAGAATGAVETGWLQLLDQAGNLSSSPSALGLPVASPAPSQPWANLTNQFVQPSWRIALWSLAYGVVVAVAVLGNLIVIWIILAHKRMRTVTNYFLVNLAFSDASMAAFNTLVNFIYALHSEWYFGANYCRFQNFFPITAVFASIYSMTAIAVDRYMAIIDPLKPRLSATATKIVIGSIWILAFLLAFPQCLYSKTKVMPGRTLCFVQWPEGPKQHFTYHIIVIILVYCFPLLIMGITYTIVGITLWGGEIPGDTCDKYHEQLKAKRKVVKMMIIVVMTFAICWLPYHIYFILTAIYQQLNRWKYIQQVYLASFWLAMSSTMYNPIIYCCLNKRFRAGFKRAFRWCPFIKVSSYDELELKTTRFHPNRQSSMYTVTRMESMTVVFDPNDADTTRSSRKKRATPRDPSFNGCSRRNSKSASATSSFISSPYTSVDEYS
# Method: as §2, §3
# opioid (kOP) = opioid (kOP) (Homo sapiens, UniProt P41145); assay: off-target selectivity panel; format: binding
# Sequence of opioid (kOP) (P41145 whole entry): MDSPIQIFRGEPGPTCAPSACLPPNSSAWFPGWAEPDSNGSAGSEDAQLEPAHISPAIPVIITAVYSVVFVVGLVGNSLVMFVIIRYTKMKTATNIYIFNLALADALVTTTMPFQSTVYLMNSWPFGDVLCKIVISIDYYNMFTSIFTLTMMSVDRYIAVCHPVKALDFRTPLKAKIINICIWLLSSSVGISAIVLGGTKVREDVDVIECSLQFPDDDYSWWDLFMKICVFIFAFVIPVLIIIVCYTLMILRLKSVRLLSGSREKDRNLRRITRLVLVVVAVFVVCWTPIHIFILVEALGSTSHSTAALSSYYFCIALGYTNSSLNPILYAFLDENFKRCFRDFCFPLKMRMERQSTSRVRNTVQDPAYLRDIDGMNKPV
# Method: as §2, §3
# opioid (mOP) = opioid (mOP) (Homo sapiens, UniProt P35372); assay: off-target selectivity panel; format: binding
# Sequence of opioid (mOP) (P35372 whole entry): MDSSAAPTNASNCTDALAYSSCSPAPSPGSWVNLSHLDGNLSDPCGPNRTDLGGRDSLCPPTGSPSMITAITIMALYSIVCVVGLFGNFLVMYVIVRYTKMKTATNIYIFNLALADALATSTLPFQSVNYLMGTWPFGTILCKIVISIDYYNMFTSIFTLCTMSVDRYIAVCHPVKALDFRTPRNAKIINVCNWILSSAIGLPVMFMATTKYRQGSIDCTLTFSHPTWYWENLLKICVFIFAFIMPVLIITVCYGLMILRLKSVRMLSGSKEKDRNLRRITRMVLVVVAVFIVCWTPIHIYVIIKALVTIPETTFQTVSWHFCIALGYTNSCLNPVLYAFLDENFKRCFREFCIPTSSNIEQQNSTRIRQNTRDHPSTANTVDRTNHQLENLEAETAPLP
# Method: as §2, §3
# [5] = system: panel of receptors (44 GPCR and 4 non-GPCR), 4 ion channels, and 3 transporters; assay: off-target selectivity panel; format: binding; conditions: 10 μM
# Method: as §2, §3
# [6] = molecular target: serotonin receptor 5HT-1A (Homo sapiens, UniProt P08908); assay: off-target selectivity panel; format: binding
# Sequence of serotonin receptor 5HT-1A (P08908 whole entry): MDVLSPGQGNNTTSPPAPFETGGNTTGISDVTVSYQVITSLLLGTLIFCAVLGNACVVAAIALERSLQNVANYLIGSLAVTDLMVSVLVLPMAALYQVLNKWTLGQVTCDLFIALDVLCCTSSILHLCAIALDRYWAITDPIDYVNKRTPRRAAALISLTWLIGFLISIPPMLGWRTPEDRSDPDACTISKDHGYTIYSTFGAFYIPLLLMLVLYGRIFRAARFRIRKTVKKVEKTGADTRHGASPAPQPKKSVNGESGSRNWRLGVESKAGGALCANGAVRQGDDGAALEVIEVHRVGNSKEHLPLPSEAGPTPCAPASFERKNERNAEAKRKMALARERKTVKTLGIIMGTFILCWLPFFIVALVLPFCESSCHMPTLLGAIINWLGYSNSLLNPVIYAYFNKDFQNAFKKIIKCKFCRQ
# Method: as §2, §3
# [7] = molecular target: serotonin receptor 5HT-2A (Homo sapiens, UniProt P28223); assay: off-target selectivity panel; format: binding
# Sequence of serotonin receptor 5HT-2A (P28223 whole entry): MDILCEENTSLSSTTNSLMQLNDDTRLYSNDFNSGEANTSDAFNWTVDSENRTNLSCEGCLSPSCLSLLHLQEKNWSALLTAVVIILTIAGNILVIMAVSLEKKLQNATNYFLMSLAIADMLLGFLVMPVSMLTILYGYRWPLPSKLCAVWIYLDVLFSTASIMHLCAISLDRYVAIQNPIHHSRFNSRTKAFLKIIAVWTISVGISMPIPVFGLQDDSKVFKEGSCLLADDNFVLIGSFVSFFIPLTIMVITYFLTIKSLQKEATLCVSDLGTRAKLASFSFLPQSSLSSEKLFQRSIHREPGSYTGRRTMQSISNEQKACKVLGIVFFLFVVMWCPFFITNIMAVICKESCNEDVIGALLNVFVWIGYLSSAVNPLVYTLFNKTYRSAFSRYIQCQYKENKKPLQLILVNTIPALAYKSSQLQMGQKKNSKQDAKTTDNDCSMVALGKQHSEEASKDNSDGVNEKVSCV
# Method: as §2, §3
# [8] = molecular target: serotonin receptor 5HT-2B (Homo sapiens, UniProt P41595); assay: off-target selectivity panel; format: binding
# Sequence of serotonin receptor 5HT-2B (P41595 whole entry): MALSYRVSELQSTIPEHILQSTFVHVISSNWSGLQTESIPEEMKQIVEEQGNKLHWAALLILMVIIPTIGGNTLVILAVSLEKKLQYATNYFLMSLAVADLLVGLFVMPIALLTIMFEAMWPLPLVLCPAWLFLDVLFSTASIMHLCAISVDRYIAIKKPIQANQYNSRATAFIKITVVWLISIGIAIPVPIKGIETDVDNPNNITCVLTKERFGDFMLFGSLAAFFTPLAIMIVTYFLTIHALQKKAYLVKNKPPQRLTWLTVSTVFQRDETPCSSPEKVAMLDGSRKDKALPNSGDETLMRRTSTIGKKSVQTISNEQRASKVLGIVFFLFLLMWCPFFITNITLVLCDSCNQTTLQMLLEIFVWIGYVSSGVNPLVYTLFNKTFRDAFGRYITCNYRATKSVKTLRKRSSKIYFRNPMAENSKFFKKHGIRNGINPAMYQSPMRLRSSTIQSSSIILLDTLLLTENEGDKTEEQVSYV
# Method: as §2, §3
# serotonin receptor 5HT-7 = serotonin receptor 5HT-7 (Homo sapiens, UniProt P34969); assay: off-target selectivity panel; format: binding
# Sequence of serotonin receptor 5HT-7 (P34969 whole entry): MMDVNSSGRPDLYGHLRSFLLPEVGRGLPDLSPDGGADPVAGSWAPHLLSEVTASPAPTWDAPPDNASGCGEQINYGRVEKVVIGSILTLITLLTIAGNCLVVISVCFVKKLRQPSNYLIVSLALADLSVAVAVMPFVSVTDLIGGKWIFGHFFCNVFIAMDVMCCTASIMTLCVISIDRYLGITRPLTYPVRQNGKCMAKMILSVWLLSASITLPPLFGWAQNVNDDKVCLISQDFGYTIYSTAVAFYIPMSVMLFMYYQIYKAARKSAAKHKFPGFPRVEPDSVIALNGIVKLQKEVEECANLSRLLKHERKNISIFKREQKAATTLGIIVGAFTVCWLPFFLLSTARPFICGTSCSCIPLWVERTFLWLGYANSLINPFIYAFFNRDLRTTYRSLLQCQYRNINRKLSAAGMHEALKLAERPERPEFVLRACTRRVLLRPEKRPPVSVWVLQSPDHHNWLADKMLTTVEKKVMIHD
# Method: as §2, §3
# vasopressin (ViA) = vasopressin (ViA) (Homo sapiens, UniProt P37288); assay: off-target selectivity panel; format: binding
# Sequence of vasopressin (ViA) (P37288 whole entry): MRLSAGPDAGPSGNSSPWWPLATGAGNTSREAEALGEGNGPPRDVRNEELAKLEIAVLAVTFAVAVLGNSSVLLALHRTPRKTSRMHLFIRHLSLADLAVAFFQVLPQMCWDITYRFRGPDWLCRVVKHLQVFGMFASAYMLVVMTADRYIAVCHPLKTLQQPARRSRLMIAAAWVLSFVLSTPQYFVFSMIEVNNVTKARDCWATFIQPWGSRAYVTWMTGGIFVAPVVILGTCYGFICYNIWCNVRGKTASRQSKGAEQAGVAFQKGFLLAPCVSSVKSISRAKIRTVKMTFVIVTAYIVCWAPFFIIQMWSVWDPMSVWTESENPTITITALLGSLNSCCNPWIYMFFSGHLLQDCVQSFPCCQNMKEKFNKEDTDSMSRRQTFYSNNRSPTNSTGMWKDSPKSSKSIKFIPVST
# Method: as §2, §3
# [9] = system: CisPt-induced hearing loss; assay: model of CisPt-induced hearing loss in rats; format: in vivo; conditions: rat
# Method: A model of CisPt-induced hearing loss in rats was evaluated to test the in vivo efficacy of LPT99. Ototoxicity was induced by intraperitoneal (IP) slow infusion of CisPt at doses that compared with those used in human preventions (eg, 10 mg/kg). LPT99 was administered IT 30 minutes before CisPt was given.
# The protective effect of LPT99 was evaluated 3 days after CisPt administration by functional measures, such as auditory brainstem response (ABR) threshold shift, DPOAE, and expression of biomarkers of apoptosis in cochlea and cytocochleograms.
# [10] = plasma concentrations after IT administration of LPT99-CD; format: in vivo, rat
# Method: In a study conducted in female Wistar rats, plasma concentrations of LPT99 were evaluated at 1 hour and 2, 4, 7, and 14 days after IT administration of a single 50 μL dose of 50, 100, or 200 μM LPT99 formulated in a 5% HPβ-cyclodextrin (“CD”) vehicle (LPT99-CD).
# [11] = distribution in cochlea and plasma after a single IT administration; format: in vivo; conditions: rat
# Method: Distribution of LPT99 was investigated in cochlea and plasma after a single IT administration in rats. The inhibitor was administered at 50, 100, or 200 μM (dissolved in 5% hydroxypropyl cyclodextrin in physiological serum).
# [12] = system: auditory function (ototoxicity); assay: non-GLP auditory toxicity after intra-tympanic administration; format: in vivo, rat; conditions: for ototoxicity: rat
# [13] = physical stability of drug product vials; format: physicochemical; conditions: for original drug concentration remaining in solution: filtered through 0.2 micron filters
# Method: Vials of the drug product were stored at either room temperature or 4° C. for a period greater than three months.
# HEI-OC1 cells [14] = conditions: cellular model of CisPt-induced apoptosis; IEB Symposium abstracts 2016; cited from earlier work
structure (smiles),measurement,setting,value
"COc1ccc2[nH]cc(CCNC(=O)CC3C(=O)N(CCc4ccc(Cl)cc4Cl)CC(=O)N3CCc3cccs3)c2c1 (stereo not drawn) [LPT99, 2-(4-(2,4-dichlorophenethyl)-3,6-dioxo-1-(2-(thiophen-2-yl)ethyl)piperazin-2-yl)-N-(2-(5-methoxy-1H-indol-3-yl)ethyl)acetamide]",release of Cytc from mitochondria,HEI-OC1 cells [1],decreased release of Cytc from mitochondria
same,cell viability with CisPt,HEI-OC1 cells [2],improved cell viability; also recorded: increased cellular viability
same,inhibition C1-GABA-gated channel,C1-GABA-gated channel; 1 μM,< 50%
same,affinity (inhibition) C1-GABA-gated channel,C1-GABA-gated channel; 10 μM,> 50%
same,inhibition Na+channel site 2,Na+channel site 2; 1 μM,< 50%
same,affinity (inhibition) Na+channel site 2,Na+channel site 2; 10 μM,> 50%
same,inhibition at 1 µM,[3]; 1 μM,< 50%
same,inhibition at 10 µM,"[3]; 10 μM, read-out: affinity (inhibition) A3",> 50%
same,inhibition at 1 µM,[4]; 1 μM,< 50%
same,inhibition at 10 µM,"[4]; 10 μM, read-out: affinity (inhibition) CCK1",> 50%
same,inhibition at 0.1 µM,melatonin receptor (MT1); 0.1 μM,6%
same,inhibition at 1 µM,melatonin receptor (MT1); 1 μM,53%
same,inhibition at 10 µM,"melatonin receptor (MT1); 10 μM, read-out: affinity (inhibition) MT1",> 50%
same,inhibition at 1 µM,neurokinin (NK2); 1 μM,< 50%
same,inhibition at 10 µM,"neurokinin (NK2); 10 μM, read-out: affinity (inhibition) NK2",> 50%
same,inhibition at 1 µM,neurokinin (NK3); 1 μM,< 50%
same,inhibition at 10 µM,"neurokinin (NK3); 10 μM, read-out: affinity (inhibition) NK3",> 50%
same,inhibition at 1 µM,opioid (kOP); 1 μM,< 50%
same,inhibition at 10 µM,"opioid (kOP); 10 μM, read-out: affinity (inhibition) kOP",> 50%
same,inhibition at 1 µM,opioid (mOP); 1 μM,< 50%
same,inhibition at 10 µM,"opioid (mOP); 10 μM, read-out: affinity (inhibition) mOP",> 50%
same,"in vitro inhibition, 41 of the tested targets",[5],< 50%
same,inhibition at 1 µM,[6]; 1 μM,< 50%
same,inhibition at 10 µM,"[6]; 10 μM, read-out: affinity (inhibition) 5HT-1A",> 50%
same,inhibition at 1 µM,[7]; 1 μM,< 50%
same,inhibition at 10 µM,"[7]; 10 μM, read-out: affinity (inhibition) 5HT-2A",> 50%
same,inhibition at 1 µM,[8]; 1 μM,< 50%
same,inhibition at 10 µM,"[8]; 10 μM, read-out: affinity (inhibition) 5HT-2B",> 50%
same,inhibition at 1 µM,serotonin receptor 5HT-7; 1 μM,< 50%
same,inhibition at 10 µM,"serotonin receptor 5HT-7; 10 μM, read-out: affinity (inhibition) 5HT-7",> 50%
same,inhibition at 1 µM,vasopressin (ViA); 1 μM,< 50%
same,inhibition at 10 µM,"vasopressin (ViA); 10 μM, read-out: affinity (inhibition) ViA",> 50%
same,ABR threshold shift induced by CisPt,"[9]; IT LPT99-CD, 3 days after administration, especially 20, 28, or 40 kHz",attenuated the ABR threshold shift
same,auditory threshold shifts vs CisPt control group,[9]; IT LPT99 in hydrogel plus CisPt,significantly lower auditory threshold shifts
same,protection against CisPt-induced hearing loss,"[9]; IT LPT99 solution (hydrogel), 63 μg/mL [100 μM] and 300 μg/mL [478 μM]",protected against CisPt-induced hearing loss; also recorded: protective effects against CisPt-induced hearing loss
same,plasma concentration at quantitation limit (3.2 nM) as share of administered dose,[10]; 50 μM dose,0.006%
same,plasma concentration at quantitation limit (3.2 nM) as share of administered dose,[10]; 100 μM dose,0.003%
same,plasma concentration at quantitation limit (3.2 nM) as share of administered dose,[10]; 200 μM dose,0.0016%
same,detection of LPT99 in administered cochleae,"[11]; single IT 50, 100, or 200 μM in 5% hydroxypropyl cyclodextrin, 0.5 and 1 hour",detected in all administered cochleae
same,LPT99 concentrations in contralateral cochleae and plasma,"[11]; single IT, all time points",BLLQ
same,"ABR thresholds in response to click or pure tones (8 to 40 kHz), latencies and amplitudes","[12]; IT, in cyclodextrin, 100 or 200 μM, Day 3",did not produce a statistically significant increase in the thresholds
same,ototoxicity,"[12]; IT, 100 and 478 μM, follow-up experiment",no LPT99 ototoxicity
same,ototoxicity,"[12]; IT, 200, 400, and 797 μM",no ototoxicity
same,time to precipitation,[13]; vials stored at 4 C,approximately 2 months
same,original drug concentration remaining in solution,[13]; vials stored at 4 C,less than 10%
same,original drug concentration remaining in solution,[13]; vials stored at room temperature,100%
same,appearance of solution,"[13]; vials stored at room temperature, greater than three months",remained clear with no evidence of drug precipitation
same,release of Cytc from mitochondria,HEI-OC1 cells [14],decreased release of Cytc from mitochondria
